We go through 1 compound from article PMC12195740, “Discovery of Novel Imidazothiazole-Based Hydroxamic Acid Derivatives as Potent Indoleamine 2,3-Dioxygenase 1 and Histone Deacetylase 6 Dual Inhibitors” (Molecules, 2025).

In test [1] the test system is CT26 tumors. The test is described as follows: In vivo antitumor efficacy, CT26 tumor-bearing BALB/c mice. To be noted: 150 mg/kg ip every 3 days for 21 days. The procedure:
After that, fixed cells were washed with PBS. Then, cells were isolated by centrifugation and stained with propidium iodide (KeyGEN BioTECH, China) for 30 min. The samples were measured using flow cytometry and analyzed by Flowjo software.
Section S 1.6 Western blot assay […]
earlier were obtained by lysing the cells in ice-cold RIPA buffer with protease and phosphatase inhibitor and stored at -20°C for future use. The protein concentrations were quantified by the Bradford method (Bio-Rad) using a Multimode Varioscan instrument (Thermo Fischer Scientific). […]
and transferred to a polyvinylidene difluoride (PVDF) membrane (Amersham Biosciences). After the membrane was blocked at room temperature for 2 h in blocking solution, primary antibody was added and incubated at 4°C overnight. Ac-α-tubulin, Ac-histone H3 and GAPDH antibodies were purchased from Imgenex, USA. After three TBST washes, the membrane was incubated with corresponding horseradish peroxidase-labeled secondary antibody (1:2,000) (Santa Cruz) at room temperature for 1 h. Membranes were washed with TBST three times for 15 min and the protein bands were detected with chemiluminescence reagent (Thermo Fischer Scientific). The X-ray films were developed using developer and fixed with fixer solution.
Section S 1.7 In vivo antitumor efficacy […]
line CT-26 in BALB/c mice as described previously. […]

Test [2] deals with HCT-116 cells. The experiment in a line: Cell cycle analysis (PI, flow cytometry). To be noted: 24 h, control 7.77%. The test is classed as cell-based. The procedure: To assess the impact of compound 10e on the cell cycle, HCT-116 cells were treated with different concentrations of compound 10e (5 μM, 10 μM, and 20 μM) for 24 h, then stained with PI, and analyzed using flow cytometry.
Cell Bank at the Chinese Academy of Sciences. Hct-116, SW480, MDA-MB-231 and MCF-7 cell […]
FBS. DMEM and FBS were obtained from Gibco-Thermo (BRL Co. Ltd., USA). The plates were incubated at 37 °C in a humidified atmosphere of 5% CO2/95% air overnight. The cells were then […]
another 48 h. The cells were stained with 10 μl of MTT at incubator for approximately 4 h. The medium was discarded and replaced by […] DMSO. The O.D. value was read at 570/630 nm with a spectrophotometer.
Section S 1.4 Molecular docking
Molecular docking was carried out in Sybyl-X 2.1 on a Windows workstation. The crystal structure of IDO1 protein with inhibitor was retrieved from the RCSB Protein Data Bank (IDO1:
4PK5, HDAC6: 6THV). Firstly, the 3D structure of the selected compound was built with Sybyl-X 2.1 sketch followed by energy minimization with the MMFF94 force field and Gasteiger-Marsili charges. The Powell’s method was used to optimize the geometry with a distance dependent dielectric constant and a termination energy gradient of 0.005 kcal/mol. […]
with 75% cold ethanol at 4 °C overnight. […] The samples were measured using flow cytometry and analyzed by Flowjo software. […]
Total cell lysates from cultured HCT-116 cells after treatment with compound 10e as mentioned earlier were obtained by lysing the cells in ice-cold RIPA buffer with protease and phosphatase inhibitor and stored at -20°C for future use. The protein concentrations were quantified by the Bradford method (Bio-Rad) using a Multimode Varioscan instrument (Thermo Fischer Scientific).
Equal amounts of protein per lane were applied to 12% SDS polyacrylamide gel for electrophoresis and transferred to a polyvinylidene difluoride (PVDF) membrane (Amersham Biosciences). […] Membranes were washed with TBST three times for 15 min and the protein bands were detected with chemiluminescence reagent (Thermo Fischer Scientific). […]
Background: A flow cytometer gives signals particle by particle.

Test [3] deals with HCT-116 cells. The experiment in a line: Cell viability (MTT) assay, HCT-116. To be noted: Homo sapiens, HCT-116, 48 h, read-out: Antiproliferative IC50, HCT-116.
Experimental: Section S 1.3 Cell viability assays
(§1) another 48 h. The cells were stained with 10 μl of MTT at incubator for approximately 4 h. The medium was discarded and replaced by 100 mL DMSO. The O.D. value was read at 570/630 nm with a spectrophotometer.
Test [4] concerns SW480 cells. The test is described as follows: Cell viability (MTT) assay, SW480. Particulars: Homo sapiens, SW480, 48 h, read-out: Antiproliferative IC50, SW480.
Experimental: Section S 1.3 Cell viability assays
as §1

In general, IC50 refers to the point on the concentration scale where inhibition reaches its midpoint.

Molecules are shown by their SMILES.

Take `O=C(CCCCCCNc1ccc(NC(=O)c2cnc3scc(-c4ccc(Br)cc4)n23)cc1)NO` [Compound 10e, 3-(4-Bromophenyl)-N-{4-[(7-(hydroxyamino)-7-oxoheptyl)amino]phenyl}imidazo[2,1-b]thiazole-5-carboxamide]: the “relative tumor volume growth rate (T/C)” value in test [1] was 38.32%. Moreover, the “tumor growth inhibition (TGI)” value in test [1] was 60.2%. In addition, the “cell population in G2/M phase” value in test [2] (HCT-116, 5 μM) was determined as 17.39%; in test [2] (HCT-116, 10 μM), 31.89%; in test [2] (HCT-116, 20 μM), 47.18%. Moreover, the IC50 worked out at 16.4 ± 3.76 µM in test [3] and 23.4 ± 3.86 µM in test [4].
